Measurements as given in patent publication US6720008B2, “Composition and method for the encapsulation of water-soluble molecules into nanoparticles” (PR Pharmaceuticals, Inc., priority 2002, dated 2004).

Test: Solubility of eosin in oil and organic solvent
Format: physicochemical
Protocol: A water/oil microemulsion was prepared as follows: 1.0 ml isopropyl myristate was added to 1.4 ml of a surfactant mixture consisting of polyoxyethylene sorbitan monooleate (Tween 80): sorbitan monolaurate (Span 20): ethanol in a 45:30:25 volume ratio. Next, 0.6 ml of a 6% (w/v) eosin Y solution was added and the mixture briefly vortexed until an optically clear, single phase solution resulted (it was confirmed that eosin was not soluble in the oil or the ethyl acetate prior to formulation of the microemulsion nanocapsules).
A water/oil microemulsion was prepared by adding 0.5 ml hexadecane to a surfactant mixture consisting of polyoxyethylene sorbitan monooleate (Tween 80): sorbitan monolaurate (Span 20): ethanol in a 45:30:25 volume ratio. To that mixture, 0.35 ml of a 6% (w/v) eosin Y solution was added. […] Nanoparticles were formed and the eosin encapsulation was measured as described in Example 1. The amount of eosin incorporated into nanocapsules was 98% of the initial quantity added.

solubility of eosin in hexadecane (conditions of Example 2): not to be soluble
solubility of eosin in the oil or the ethyl acetate (oil = isopropyl myristate, prior to formulation of the microemulsion nanocapsules): not soluble
Compound: O=C1OC2(c3ccccc31)c1cc(Br)c(O)c(Br)c1Oc1c2cc(Br)c(O)c1Br [eosin, eosin Y]
